Assay results: patent US9234025B2, “Extracellular allosteric inhibitor binding domain from a tyrosine kinase receptor” (SANOFI, priority 2009, dated 2016)

Key:
FGFR1^∂3 = biological target: T1, FGFR1^∂3 (Homo sapiens, UniProt P11362); test: 1D-NMR, FGFR1 domain D3 fragment; format: binding
T1 construct: a fragment containing only domain D3 (FGFR1^∂3)
Procedure: All STD- and 1D-NMR experiments were carried out on a BRUKER three-channel DRX600 and on a BRUKER four-channel DRX800 spectrometer at the standard temperature of 298 K and were referenced to the internal standard 3-Trimethyl-2,2,3,3-tetradeuteropropionate-sodium salt (TSP). Typically, NMR samples contained 0.5 ml of protein ([…]) in 25 mM Tris/HCl, pH 8.0, 200 mM NaCl, 25 mM L-arginine, 2 mM EDTA, 0.02% azide (in 95% H2O/5% D2O). For protein ligand 1D STD NMR measurements spectra were recorded with 1 mM ligand SSR128129E (100 mM DMSO stock solution) and […] protein with weak 2s RF irradiation on separated protein methyl resonances. Water suppression was carried out using the standard Bruker WATERGATE 3-9-19 sequence. NMR data were processed using the Bruker program xwin NMR software.
Since SSR was a multi-FGFR inhibitor, we used polypeptide fragments of the various (human) FGFR subtypes. […] We then used ECD fragments of FGFRs to map the binding site of SSR to one of the three Ig-domains. […] In fact, FGFR1^∂3 and FGFR1^∂123 give identical signals (broad line) meaning that we obtained same affinity for these proteins while FGFR1^∂12 and FGFR1^∂2 cause sharp lines (FIG. 11B).

FGFR2^∂23-Y328D = FGFR2^∂23-Y328D (Homo sapiens, UniProt P21802, Y328D); test: FTIR measurement, FGFR2 Y328D mutant; design: FGFR2^∂23 (consisting of domain D2 and 3); made in house; conditions: 100 μM SSR
Chain of FGFR2^∂23-Y328D (P21802 148-366 Y328D limits assumed): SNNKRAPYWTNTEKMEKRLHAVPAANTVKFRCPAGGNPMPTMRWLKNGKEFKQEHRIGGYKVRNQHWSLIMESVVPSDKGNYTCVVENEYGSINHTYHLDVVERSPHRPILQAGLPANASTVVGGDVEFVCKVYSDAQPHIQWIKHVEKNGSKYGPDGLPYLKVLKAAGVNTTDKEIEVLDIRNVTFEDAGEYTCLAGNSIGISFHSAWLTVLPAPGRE
Procedure: Fourier transform infrared measurements were performed using a Bruker Tensor 37 FT-IR spectrometer equipped with an AquaSpec flowcell. The sample compartment was thermostatted to 25° C., 100 spectra were averaged for a good signal to noise ratio. Proteins were purified as described above. Immediately after the gelfiltration, the proteins were dialysed overnight in the same preparation of buffer (10 mM Hepes pH 7.2, 150 mM NaCl) in the presence or absence of SSR. Dialysis buffer samples were used to substract background signal. The analysis was performed using the OPUS software package, provided by Bruker. Interpretation of the results was performed as described {Barth, 2002 #60}.
We next explored whether SSR bound to amino acid residues that form part of the orthosteric site in D3 or to an alternative allosteric site. Initially, we used the molecular docking algorithms of the software packages MOLEGRO, Autodock and YASARA and available crystallographic data. […] These findings are consistent with a model whereby SSR binds to an allosteric site formed by a hydrophobic pocket near the orthosteric ligand binding site, and in which residue Tyr^328 seems to be critical for mediating the interaction between SSR to FGFR2. We also analyzed the FTIR spectrum of the aforementioned mutated FGFR2 fragments.

[1] = system: AKT phosphorylation in HUVEC cells; test: western blot analysis of AKT phosphorylation in HUVEC; format: cell-based, human; conditions: phospho-AKT Ser473
Procedure: HUVE Cells (Promocell, C-12200) are seeded in 35 mm collagen I coated disk (BD Biocoat, 354456) at 0.5.10^6 cells in 2 ml of EBM medium (Clonetics, CC-3121) containing 2% FBS (Clonetics, CC-4101), 10 μg/ml hEGF (Clonetics, CC-4017) from the EGM singlequots kit (Clonetics, CC-4133), 1250 ng/ml heparin (Sigma, H3149) and 375 ng/ml ECGS (BD Biosciences, 356006). At 90% confluency, cells are starved overernight in 1.8 ml of RPMI 1640 (Invitrogen, 32404-014), 0.5% FCS, 2 mM glutamine, 1 mM non-essential amino acids (Invitrogen, 11140-050), sodium pyruvate (Invitrogen, 11360-070). The day after, cells are stimulated 10 min by 200 μl of equilibrated starvation medium that contains 10×FGF-4 (30 ng/ml; R&D, 235-F4-025) with or without 10×SSR (3 μM). Next, cells are rinsed with cold PBS and cell lysed with 75 μl RIPA that contains 2.5 mM orthovanadate and protease inhibitors cocktail (Sigma, P8340). Cell lysates were centrifuged at 12,000 g for 10 min, and the supernatants were collected. Proteins were separated on 4-20% Novex Tris-Glycine polyacrylamide gels (Invitrogen) and subsequently transferred onto nitrocellulose membranes (Invitrogen, IB3010-01). […] Signal of each spot is obtained following chemiluminescent detection with SuperSignal® West Dura Extended Duration Substrate (Thermo Scientific, 34076) and spot density is quantified using a Biolmaging System Chemigenius2 (Syngene).

HUVEC = test: cell migration with various growth factors (modified Boyden chamber); format: cell-based, human; conditions: SSR 1 μM
Procedure: Cell migration was assessed by a modified Boyden chamber assay, by using 24-well inserts containing 8 μm pore size transwell permeable supports with a polycarbonate membrane (Costar, Corning Inc.). Exponentially growing cells were starved in 0.2% FBS containing medium for 16 hours and resuspended at 5×10^5 cells/ml in the same low serum medium. 100 μl of the cell suspension were seeded in the upper chamber, while chemoattractants and/or SSR were placed in the lower chamber. Chemoattractants tested include: human PDGF-BB, IGF-I, PIGF, EGF, all at 100 ng/ml, in the presence or absence of SSR (1 μM). 10% FBS containing medium was used a positive control. After 6 hours incubation at 37° C., cells on the upper side of the membrane were scraped using a cotton swab, while migrated cells on the lower surface were fixed with 1% paraformaldehyde in PBS and nuclei stained with DAPI for quantification using a fluorescent microsope. Quanitifcation is performed by making 5 random images at a magnification of 10× and by counting the number of nuclei.

FGF2 = FGF2 (Homo sapiens, UniProt P09038); test: FGF2 dimerization; format: biochemical
Chain of FGF2 (P09038 134-288, species assumed): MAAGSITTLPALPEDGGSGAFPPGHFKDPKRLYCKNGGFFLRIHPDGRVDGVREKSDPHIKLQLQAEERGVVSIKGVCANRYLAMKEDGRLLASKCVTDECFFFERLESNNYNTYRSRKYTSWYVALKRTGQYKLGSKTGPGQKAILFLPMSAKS

T1 sequence (P11362 255-357 limits assumed): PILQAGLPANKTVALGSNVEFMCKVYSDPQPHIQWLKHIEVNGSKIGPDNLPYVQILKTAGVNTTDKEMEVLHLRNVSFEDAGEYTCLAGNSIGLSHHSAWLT

SMILES: COc1c(C)c(C(=O)c2ccc(N)c(C(=O)[O-])c2)n2ccccc12.[Na+] [SSR]
- binding to FGFR1 domain D3 fragment (FGFR1^∂3): identified a binding site for SSR
- change of FTIR spectrum (conformational change) (FGFR2^∂23-Y328D): failed to induce this change
- FGF-induced AKT phosphorylation [1]: inhibit
- cellular response (migration) induced by EGF (HUVEC; EGF 100 ng/ml): did not affect
- cellular response (migration) induced by IGF (HUVEC; IGF-I 100 ng/ml): did not affect
- cellular response (migration) induced by PDGF-BB (HUVEC; PDGF-BB 100 ng/ml): did not affect
- cellular response (migration) induced by PIGF (HUVEC; PIGF 100 ng/ml): did not affect
- FGF2 dimerization (FGF2): not able to inhibit
